Patent publication US4268665A, “Derivatives of antibiotic tylosin” (Toyo Jozo Kabushiki Kaisha, priority 1978, dated 1981)
In brackets after ≈: the same amount, converted by molar mass. Read-outs that look alike come from different tables or passages of the source.

What was measured:
Type in all cases: cell-based
Staph.aureus ATCC6538P = test: MIC on Staph.aureus ATCC6538P; settings: Staphylococcus aureus
From the text: (§1) In Table I hereinafter is shown the minimum inhibitory concentrations (MIC) on microorganisms of the products of the present invention. As a result, the compound [1] is seen to be effective against macrolide-resistant A group microorganisms.

Staph.aureus MS353 = test: MIC on Staph.aureus MS353; settings: Staphylococcus aureus
From the text: as §1

Staph.aureus MS353A0 = test: MIC on Staph.aureus MS353A0 (macrolide-resistant A group); settings: Staphylococcus aureus; Staph.aureus MS353A0, erythromycin, oleandomycin, 16-membered macrolide resistant clinical isolate
From the text: as §1
(§2) *Erythromycin, oleandomycin, 16membered macrolide resistant strains of
(§3) clinical isolates (macrolideresistant Agroup strains)

Staph.aureus 0116 = test: MIC on Staph.aureus 0116 (macrolide-resistant A group); settings: Staphylococcus aureus
From the text: as §1, §2, §3

Staph.aureus 0119 = test: MIC on Staph.aureus 0119 (macrolide-resistant A group); settings: Staphylococcus aureus
From the text: as §1, §2, §3

Staph.aureus 0127 = test: MIC on Staph.aureus 0127 (macrolide-resistant A group); settings: Staphylococcus aureus; Staph.aureus 0127, erythromycin, oleandomycin, 16-membered macrolide resistant clinical isolate
From the text: as §1, §2, §3

Strept.pyogenes N.Y.5 = test: MIC on Strept.pyogenes N.Y.5; settings: Streptococcus pyogenes
From the text: as §1

Strept.pyogenes 1022 = test: MIC on Strept.pyogenes 1022 (macrolide-resistant A group); settings: Streptococcus pyogenes; Strept.pyogenes 1022, erythromycin, oleandomycin, 16-membered macrolide resistant clinical isolate
From the text: as §1, §2, §3

[1] = Staph.aureus 0116, erythromycin, oleandomycin, 16-membered macrolide resistant clinical isolate, read-out: MIC
[2] = Staph.aureus 0119, erythromycin, oleandomycin, 16-membered macrolide resistant clinical isolate, read-out: MIC

SMILES: CCC(=O)OC1(C)CC(OC2C(C)OC(OC3C(CC=O)CC(C)C(=O)C=CC(C)=CC(COC4OC(C)C(O)C(OC)C4OC)C(CC)OC(=O)CC(O)C3C)C(O)C2N(C)C)OC(C)C1OC(=O)CC(C)C (stereo not drawn) [3"-Pro, 4"-Iva, 4"-isovaleryl-3"-propionyltylosin]
- MIC (Staph.aureus ATCC6538P): 1.6 µg/mL (≈ 1.51 µM)
- MIC (Staph.aureus MS353): 3.1 µg/mL (≈ 2.93 µM)
- MIC (Staph.aureus MS353A0): 6.3 µg/mL (≈ 5.96 µM)
- MIC (Staph.aureus 0116; [1]): 6.3 µg/mL (≈ 5.96 µM)
- MIC (Staph.aureus 0119; [2]): 6.3 µg/mL (≈ 5.96 µM)
- MIC (Staph.aureus 0127): 12.5 µg/mL (≈ 11.8 µM)
- MIC (Strept.pyogenes N.Y.5): 0.4 µg/mL (≈ 0.379 µM)
- MIC (Strept.pyogenes 1022): 0.8 µg/mL (≈ 0.757 µM)

SMILES: CCCC(=O)OC1C(C)OC(OC2C(C)OC(OC3C(CC=O)CC(C)C(=O)C=CC(C)=CC(COC4OC(C)C(O)C(OC)C4OC)C(CC)OC(=O)CC(O)C3C)C(O)C2N(C)C)CC1(C)OC(C)=O (stereo not drawn) [3"-Ac, 4"-Bu, 3"-acetyl-4"-butyryltylosin]
- MIC (Staph.aureus ATCC6538P): 1.6 µg/mL (≈ 1.56 µM)
- MIC (Staph.aureus MS353): 3.1 µg/mL (≈ 3.01 µM)
- MIC (Staph.aureus MS353A0): 12.5 µg/mL (≈ 12.2 µM)
- MIC (Staph.aureus 0116; [1]): 6.3 µg/mL (≈ 6.13 µM)
- MIC (Staph.aureus 0119; 0119): 12.5 µg/mL (≈ 12.2 µM)
- MIC (Staph.aureus 0127): 25 µg/mL (≈ 24.3 µM)
- MIC (Strept.pyogenes N.Y.5): 0.2 µg/mL (≈ 0.195 µM)
- MIC (Strept.pyogenes 1022): 1.6 µg/mL (≈ 1.56 µM)

SMILES: CCC1OC(=O)CC(O)C(C)C(OC2OC(C)C(OC3CC(C)(OC(C)=O)C(OC(C)=O)C(C)O3)C(N(C)C)C2O)C(CC=O)CC(C)C(=O)C=CC(C)=CC1COC1OC(C)C(O)C(OC)C1OC (stereo not drawn) [3"-Ac, 4"-Ac, 3", 4"-diacetyltylosin]
- MIC (Staph.aureus ATCC6538P): 0.8 µg/mL (≈ 0.8 µM)
- MIC (Staph.aureus MS353): 1.6 µg/mL (≈ 1.6 µM)
- MIC (Staph.aureus MS353A0): 12.5 µg/mL (≈ 12.5 µM)
- MIC (Staph.aureus 0116; 0116): 12.5 µg/mL (≈ 12.5 µM)
- MIC (Staph.aureus 0119; [2]): 50 µg/mL (≈ 50 µM)
- MIC (Staph.aureus 0127): 100 µg/mL (≈ 100 µM)
- MIC (Strept.pyogenes N.Y.5): 0.2 µg/mL (≈ 0.2 µM)
- MIC (Strept.pyogenes 1022): 6.3 µg/mL (≈ 6.3 µM)

SMILES: CCCCCC(=O)OC1C(C)OC(OC2C(C)OC(OC3C(CC=O)CC(C)C(=O)C=CC(C)=CC(COC4OC(C)C(O)C(OC)C4OC)C(CC)OC(=O)CC(O)C3C)C(O)C2N(C)C)CC1(C)OC(C)=O (stereo not drawn) [3"-Ac, 4"-Hex, 3"-acetyl-4"-hexanoyltylosin]
- MIC (Staph.aureus ATCC6538P): 1.6 µg/mL (≈ 1.51 µM)
- MIC (Staph.aureus MS353): 3.1 µg/mL (≈ 2.93 µM)
- MIC (Staph.aureus MS353A0): 12.5 µg/mL (≈ 11.8 µM)
- MIC (Staph.aureus 0116; [1]): 6.3 µg/mL (≈ 5.96 µM)
- MIC (Staph.aureus 0119; 0119): 12.5 µg/mL (≈ 11.8 µM)
- MIC (Staph.aureus 0127): 25 µg/mL (≈ 23.7 µM)
- MIC (Strept.pyogenes N.Y.5): 0.4 µg/mL (≈ 0.379 µM)
- MIC (Strept.pyogenes 1022): 1.6 µg/mL (≈ 1.51 µM)

SMILES: CCC(=O)OC1C(C)OC(OC2C(C)OC(OC3C(CC=O)CC(C)C(=O)C=CC(C)=CC(COC4OC(C)C(O)C(OC)C4OC)C(CC)OC(=O)CC(O)C3C)C(O)C2N(C)C)CC1(C)OC(=O)CC (stereo not drawn) [3"-Pro, 4"-Pro, 3", 4"-dipropionyltylosin]
- MIC (Staph.aureus ATCC6538P): 1.6 µg/mL (≈ 1.56 µM)
- MIC (Staph.aureus MS353): 3.1 µg/mL (≈ 3.01 µM)
- MIC (Staph.aureus MS353A0): 25 µg/mL (≈ 24.3 µM)
- MIC (Staph.aureus 0116; [1]): 6.3 µg/mL (≈ 6.13 µM)
- MIC (Staph.aureus 0119; [2]): 12.5 µg/mL (≈ 12.2 µM)
- MIC (Staph.aureus 0127): 25 µg/mL (≈ 24.3 µM)
- MIC (Strept.pyogenes N.Y.5): 0.2 µg/mL (≈ 0.195 µM)
- MIC (Strept.pyogenes 1022): 1.6 µg/mL (≈ 1.56 µM)

SMILES: CC[C@H]1OC(=O)C[C@@H](O)[C@H](C)[C@@H](O[C@@H]2O[C@H](C)[C@@H](O[C@H]3C[C@@](C)(O)[C@@H](O)[C@H](C)O3)[C@H](N(C)C)[C@H]2O)[C@@H](CC=O)C[C@@H](C)C(=O)/C=C/C(C)=C/[C@@H]1CO[C@@H]1O[C@H](C)[C@@H](O)[C@@H](OC)[C@H]1OC [3"-H, 4"-H, tylosin]
- MIC (Staph.aureus ATCC6538P): 0.8 µg/mL (≈ 0.873 µM)
- MIC (Staph.aureus MS353): 1.6 µg/mL (≈ 1.75 µM)
- MIC (Staph.aureus MS353A0): > 100 µg/mL
- MIC (Staph.aureus 0116; [1]): > 100 µg/mL
- MIC (Staph.aureus 0119; [2]): > 100 µg/mL
- MIC (Staph.aureus 0127): > 100 µg/mL
- MIC (Strept.pyogenes N.Y.5): 0.2 µg/mL (≈ 0.218 µM)
- MIC (Strept.pyogenes 1022): > 100 µg/mL

SMILES: CCC(=O)OC1C(C)OC(OC2C(C)OC(OC3C(CC=O)CC(C)C(=O)C=CC(C)=CC(COC4OC(C)C(O)C(OC)C4OC)C(CC)OC(=O)CC(O)C3C)C(O)C2N(C)C)CC1(C)OC(C)=O (stereo not drawn) [3"-Ac, 4"-Pro, 3"-acetyl-4"-propionyltylosin]
- MIC (Staph.aureus ATCC6538P): 1.6 µg/mL (≈ 1.58 µM)
- MIC (Staph.aureus MS353): 3.1 µg/mL (≈ 3.06 µM)
- MIC (Staph.aureus MS353A0): 25 µg/mL (≈ 24.6 µM)
- MIC (Staph.aureus 0116; [1]): 6.3 µg/mL (≈ 6.21 µM)
- MIC (Staph.aureus 0119; [2]): 12.5 µg/mL (≈ 12.3 µM)
- MIC (Staph.aureus 0127): 25 µg/mL (≈ 24.6 µM)
- MIC (Strept.pyogenes N.Y.5): 0.2 µg/mL (≈ 0.197 µM)
- MIC (Strept.pyogenes 1022): 1.6 µg/mL (≈ 1.58 µM)

SMILES: CCC1OC(=O)CC(O)C(C)C(OC2OC(C)C(OC3CC(C)(OC(C)=O)C(OC(=O)CC(C)C)C(C)O3)C(N(C)C)C2O)C(CC=O)CC(C)C(=O)C=CC(C)=CC1COC1OC(C)C(O)C(OC)C1OC (stereo not drawn) [3"-Ac, 4"-Iva, 3"-acetyl-4"-isovaleryltylosin]
- MIC (Staph.aureus ATCC6538P): 1.6 µg/mL (≈ 1.54 µM)
- MIC (Staph.aureus MS353): 3.1 µg/mL (≈ 2.97 µM)
- MIC (Staph.aureus MS353A0): 6.3 µg/mL (≈ 6.04 µM)
- MIC (Staph.aureus 0116; [1]): 6.3 µg/mL (≈ 6.04 µM)
- MIC (Staph.aureus 0119; [2]): 6.3 µg/mL (≈ 6.04 µM)
- MIC (Staph.aureus 0127): 12.5 µg/mL (≈ 12 µM)
- MIC (Strept.pyogenes N.Y.5): 0.2 µg/mL (≈ 0.192 µM)
- MIC (Strept.pyogenes 1022): 1.6 µg/mL (≈ 1.54 µM)

SMILES: CCCC(=O)OC1C(C)OC(OC2C(C)OC(OC3C(CC=O)CC(C)C(=O)C=CC(C)=CC(COC4OC(C)C(O)C(OC)C4OC)C(CC)OC(=O)CC(O)C3C)C(O)C2N(C)C)CC1(C)O (stereo not drawn) [3"-H, 4"-Bu, reference compound]
- MIC (Staph.aureus ATCC6538P): 0.8 µg/mL (≈ 0.811 µM)
- MIC (Staph.aureus MS353): 3.1 µg/mL (≈ 3.14 µM)
- MIC (Staph.aureus MS353A0): 50 µg/mL (≈ 50.7 µM)
- MIC (Staph.aureus 0116; [1]): 25 µg/mL (≈ 25.3 µM)
- MIC (Staph.aureus 0119; [2]): 50 µg/mL (≈ 50.7 µM)
- MIC (Staph.aureus 0127): 100 µg/mL (≈ 101 µM)
- MIC (Strept.pyogenes N.Y.5): 0.2 µg/mL (≈ 0.203 µM)
- MIC (Strept.pyogenes 1022): 12.5 µg/mL (≈ 12.7 µM)

SMILES: CCCC(=O)OC1C(C)OC(OC2C(C)OC(OC3C(CC=O)CC(C)C(=O)C=CC(C)=CC(COC4OC(C)C(O)C(OC)C4OC)C(CC)OC(=O)CC(O)C3C)C(O)C2N(C)C)CC1(C)OC(=O)CC (stereo not drawn) [3"-Pro, 4"-Bu, 4"-butyryl-3"-propionyltylosin]
- MIC (Staph.aureus ATCC6538P): 1.6 µg/mL (≈ 1.54 µM)
- MIC (Staph.aureus MS353): 3.1 µg/mL (≈ 2.97 µM)
- MIC (Staph.aureus MS353A0): 12.5 µg/mL (≈ 12 µM)
- MIC (Staph.aureus 0116; [1]): 6.3 µg/mL (≈ 6.04 µM)
- MIC (Staph.aureus 0119; 0119): 12.5 µg/mL (≈ 12 µM)
- MIC (Staph.aureus 0127): 25 µg/mL (≈ 24 µM)
- MIC (Strept.pyogenes N.Y.5): 0.2 µg/mL (≈ 0.192 µM)
- MIC (Strept.pyogenes 1022): 1.6 µg/mL (≈ 1.54 µM)

SMILES: CCCC(=O)OC1C(C)OC(OC2C(C)OC(OC3C(CC=O)CC(C)C(=O)C=CC(C)=CC(COC4OC(C)C(O)C(OC)C4OC)C(CC)OC(=O)CC(O)C3C)C(O)C2N(C)C)CC1(C)OC(=O)CCC (stereo not drawn) [3"-Bu, 4"-Bu, 3", 4"-dibutyryltylosin]
- MIC (Staph.aureus ATCC6538P): 1.6 µg/mL (≈ 1.51 µM)
- MIC (Staph.aureus MS353): 6.1 µg/mL (≈ 5.77 µM)
- MIC (Staph.aureus MS353A0): 12.5 µg/mL (≈ 11.8 µM)
- MIC (Staph.aureus 0116; [1]): 6.3 µg/mL (≈ 5.96 µM)
- MIC (Staph.aureus 0119; 0119): 12.5 µg/mL (≈ 11.8 µM)
- MIC (Staph.aureus 0127): 25 µg/mL (≈ 23.7 µM)
- MIC (Strept.pyogenes N.Y.5): 0.2 µg/mL (≈ 0.189 µM)
- MIC (Strept.pyogenes 1022): 1.6 µg/mL (≈ 1.51 µM)

SMILES: CCC1OC(=O)CC(O)C(C)C(OC2OC(C)C(OC3CC(C)(OC(=O)CC(C)C)C(OC(C)=O)C(C)O3)C(N(C)C)C2O)C(CC=O)CC(C)C(=O)C=CC(C)=CC1COC1OC(C)C(O)C(OC)C1OC (stereo not drawn) [3"-Iva, 4"-Ac, 4"-acetyl-3"-isovaleryltylosin]
- MIC (Staph.aureus ATCC6538P): 0.8 µg/mL (≈ 0.768 µM)
- MIC (Staph.aureus MS353): 1.6 µg/mL (≈ 1.54 µM)
- MIC (Staph.aureus MS353A0): 6.3 µg/mL (≈ 6.04 µM)
- MIC (Staph.aureus 0116; [1]): 6.3 µg/mL (≈ 6.04 µM)
- MIC (Staph.aureus 0119; [2]): 25 µg/mL (≈ 24 µM)
- MIC (Staph.aureus 0127): > 100 µg/mL
- MIC (Strept.pyogenes N.Y.5): 0.2 µg/mL (≈ 0.192 µM)
- MIC (Strept.pyogenes 1022): 6.3 µg/mL (≈ 6.04 µM)
